Experimental data reported in patent US7098334B2 (Industrial Research Limited, priority 2002, dated 2006).
Where a name gives a salt, the structure may show the parent alone. Read-outs that look alike come from different tables or passages of the source.

Experiments:
[1] = biological target: MTAN (Escherichia coli, UniProt P0AF12); test: Enzyme inhibition assay, MTAN (slow-onset inhibition constants); type: biochemical; settings: for Ki: MTAN
Experimental: (§1) Ki as shown in Tables 1 and 2 is the initial inhibition constant formed by the enzyme-inhibitor complex, and Ki* is the equilibrium dissociation constant for inhibition that is observed following a period of slow-onset, tight binding inhibition. Ki* is the biologically effective constant.
(§2) Enzyme assays were conducted to assess the effectiveness of selected compounds of the invention as inhibitors of MTAP and MTAN.
(§3) Inhibitors.—Inhibitor concentrations were determined by the UV absorbance spectrum using the published millimolar extinction coefficients for 9-dazadenine of 8.5 at 275 nm at pH 7.0.
(§4) Assays.—The direct spectrophotometric assay for the conversion of MTA into adenine was measured as the decrease in absorbance at 274 nm. At 274 nm, Δε between MTA and adenine is at a maximum and produces a spectral change of 1.6 absorbance units/cm/mM (DeWolf, W. E. Jr., Fullin, F. A., and Schramm, V. L. (1979) J. Biol. Chem. 254, 10868–10875)
(§5) Slow-Onset Inhibition and Inhibition Constants.—The kinetics for slow onset inhibition and the Ki measurement was carried out by adding a known concentration of enzyme (1–5 nM) to a reaction mixture containing a substrate concentration of 200 μM. This concentration corresponds to an OD of 0.7–1.1 at […]. The formation of product was monitored as a decrease in absorbance at 274 nm. Conditions for Ki* determination used high concentrations of substrate. Two controls, one having no inhibitor and the other no enzyme were included in the experiment. The Ki values MTAP for the various compounds were calculated by fitting in the ratio of initial rates in the presence of inhibitor to without any inhibitor versus the inhibitor concentration, for the known Km and substrate concentration into the following expression.
(§6) Where Vo′ is the rate in the presence of inhibitor • Vo rate in the absence of inhibitor • [I] inhibitor concentration • And [S] is the substrate concentration
(§7) And the Ki* was calculated by fitting to the following expression
(§8) Where Vs′ is the steady-state rate following attainment of equilibrium in the presence inhibitor, and Vs is the steady-state rate in the control having no inhibitor. Both these equations are valid for competitive type inhibition.

[2] = biological target: T1, human MTAP (Homo sapiens, UniProt Q13126); test: Enzyme inhibition assay, MTAP (slow-onset inhibition constants); type: biochemical; settings: for Ki: MTAP
T1 construct: inferred from pQE32 vector and Ni-NTA purification) (N); made in house; host or cells: E. coli
T1 sequence (Q13126 1-283): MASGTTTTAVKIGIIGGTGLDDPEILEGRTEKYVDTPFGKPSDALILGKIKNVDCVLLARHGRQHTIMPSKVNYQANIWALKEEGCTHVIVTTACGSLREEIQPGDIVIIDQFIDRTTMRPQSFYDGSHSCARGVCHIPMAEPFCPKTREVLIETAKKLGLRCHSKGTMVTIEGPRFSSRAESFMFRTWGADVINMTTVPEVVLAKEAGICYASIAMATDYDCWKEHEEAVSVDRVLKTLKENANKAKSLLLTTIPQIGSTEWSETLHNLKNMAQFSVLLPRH
Experimental: as §1, §2
Enzymes.—The human MTAP protein was cloned into pQE32 expression vector and transformed into E. coli. Induction cultures containing 1 L (25 mg/L) and 50 μg/mL ampicillin were inoculated with 1 mL overnight grown starter-culture and incubated at 37° C. When the cultures reached an OD of ≈0.6 they were induced with 1.5 mM IPTG for 6 to 8 hours. Cells were harvested by centrifugation at 5000 rpm for 30 min, and subsequently resuspended in a buffer (20 mM imidazole, 300 mM NaCl, 0.2 mM phenylmethylsulfonyl fluoride (PMSF), 100 mM Tris, pH 8.0) containing a small amount of lysozyme to weaken the cell membrane. Cells were lysed with a French press. The insoluble material was removed by high-speed centrifugation. The cell extract was further clarified with 35% ammonium sulfate precipitation followed by high-speed centrifugation. The clarified cell extract was then applied to a 5 mL Ni-NTA column that had previously been equilibrated with the binding buffer. Further chromatographic steps were carried out by FPLC. The column was washed with 10 volumes of 50 mM imidazole, 300 mM NaCl, and 100 mM Tris, pH 8.0, and the protein was eluted with a buffer containing a 50–250 mM gradient of imidazole, 300 mM NaCl, 1 M Tris, pH 8.0. The purity of the protein was verified by running polyacrylamide gel followed by Coomassie staining. The protein was subsequently dialyzed in 50 mM NaCl, 2 mM dithiothreitol (DTT) and 50 mM Tris, pH 7.4, and was concentrated to 10 mg/mL. The purified protein was stored at −80° C. in 100 μL to 150 μL aliquots.
as §3, §4
as §5, with “This” for “Slow-Onset Inhibition and Inhibition Constants.—The kinetics for slow onset inhibition and the Ki measurement was carried out by adding a known concentration of enzyme (1–5 nM) to a reaction mixture containing a substrate concentration of 200 μM. This”
as §6, §7, §8

[3] = equilibrium dissociation constant after slow-onset, tight binding inhibition, read-out: Ki*
[4] = initial inhibition constant, read-out: Ki
[5] = Ki*, equilibrium dissociation constant after slow-onset, tight binding inhibition
[6] = Ki, initial inhibition constant

Chain of MTAN (P0AF12 whole entry): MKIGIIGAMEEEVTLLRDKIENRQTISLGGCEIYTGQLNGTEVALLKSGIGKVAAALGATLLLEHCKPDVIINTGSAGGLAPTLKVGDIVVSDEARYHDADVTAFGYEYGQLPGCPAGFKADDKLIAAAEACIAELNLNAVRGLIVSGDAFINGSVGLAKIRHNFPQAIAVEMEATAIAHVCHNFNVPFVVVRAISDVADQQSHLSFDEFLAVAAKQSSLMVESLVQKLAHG

Row | Compound | Ki [1, 3] [nM] | Ki [1, 4] [nM] | Ki [2, 3] [nM] | Ki [2, 4] [nM] | Ki [1, 5] [nM] | Ki [1, 6] [nM] | inhibition of MTAP (in words) [2] | inhibition of MTAN (in words) [1]
1 | Nc1ncnc2c([C@@H]3N[C@H](CSc4ccccc4)[C@H](O)C3O)c[nH]c12 (stereo partly shown) | 0.032 ± 0.002 | 0.046 ± 0.003 | 0.082 ± 0.009 | 0.89 ± 0.12 |  |  |  | 
2 | Nc1ncnc2c([C@@H]3N[C@H](CSc4cccc(Cl)c4)[C@H](O)C3O)c[nH]c12 (stereo partly drawn) [5′-(m-Chloro-Phenyl-thio)-ImmA, (1S)-1-(9-Deazaadenin-9-yl)-5-(3-chlorophenyl)thio-1,4-dideoxy-1,4-imino-D-ribitol] |  |  |  | 4 ± 0.4 | 0.02 ± 0.002 | 0.044 ± 0.004 |  | 
3 | Cc1cccc(SC[C@H]2N[C@@H](c3c[nH]c4c(N)ncnc34)C(O)[C@H]2O)c1 (stereo partly shown) [5′-(m-tolylthio)-ImmA] |  |  | 0.146 ± 0.048 | 0.602 ± 0.032 | 0.009 ± 0.001 | 0.015 ± 0.0006 |  | 
4 | Nc1ncnc2c([C@@H]3N[C@H](CSc4ccc(Cl)cc4)[C@H](O)C3O)c[nH]c12 (stereo partly drawn) [5′-(p-Chloro-Phenyl-thio)-ImmA, (1S)-1-(9-Deazaadenin-9-yl)-5-(4-chlorophenyl)thio-1,4-dideoxy-1,4-imino-D-ribitol] |  |  | 0.09 ± 0.02 | 0.334 ± 0.036 | 0.006 | 0.006 ± 0.0003 |  | 
5 | Nc1ncnc2c([C@@H]3N[C@H](CSc4ccc(F)cc4)[C@H](O)C3O)c[nH]c12 (stereo partly shown) [5′-(p-Fluoro-phenyl-thio)-ImmA] |  |  |  | 3 ± 0.2 | 0.02 ± 0.004 | 0.082 ± 0.007 |  | 
6 | Cc1ccc(SC[C@H]2N[C@@H](c3c[nH]c4c(N)ncnc34)C(O)[C@H]2O)cc1 (stereo partly shown) [5′-(p-tolylthio)-ImmA] |  |  | 0.252 ± 0.023 | 1.6 ± 0.2 | 0.008 ± 0.001 | 0.018 ± 0.001 |  | 
7 | Nc1ncnc2c([C@@H]3N[C@H](CSCc4ccccc4)[C@H](O)C3O)c[nH]c12 (stereo partly drawn) [5′-Benzylthio-ImmA, (1S)-1-(9-Deazaadenin-9-yl)-5-benzylthio-1,4-dideoxy-1,4-imino-D-ribitol] |  |  |  | 12 ± 1 | 0.012 ± 0.001 | 0.038 ± 0.003 |  | 
8 | CCSC[C@H]1N[C@@H](c2c[nH]c3c(N)ncnc23)C(O)[C@H]1O (stereo partly shown) [5′-Ethylthio-ImmA] |  |  | 0.26 ± 0.015 | 18 ± 2 | 0.027 ± 0.0003 | 0.073 ± 0.011 |  | 
9 | Nc1ncnc2c([C@@H]3N[C@H](CSCCF)[C@H](O)C3O)c[nH]c12 (stereo partly shown) [5′-Fluoroethylthio-ImmA] |  |  | 1.5 ± 0.17 | 7 ± 0.5 | 0.03 ± 0.003 | 0.103 ± 0.011 |  | 
10 | Nc1ncnc2c([C@@H]3N[C@H](CSCCO)[C@H](O)C3O)c[nH]c12 (stereo partly shown) [5′-Hydroxyethylthio-ImmA] |  |  |  | 22 ± 2 |  | 0.407 ± 0.016 |  | 
11 | COC[C@H]1N[C@@H](c2c[nH]c3c(N)ncnc23)[C@H](O)[C@@H]1O [5′-Methoxy-ImmA, (1S)-1-(9-deazaadenin-9-yl)-1,4-dideoxy-1,4-imino-5-O-methyl-D-ribitol hydrochloride] |  |  |  | 70 ± 5 |  | 10 ± 1 |  | 
12 | Nc1ncnc2c([C@@H]3N[C@H](CSc4cccc5ccccc45)[C@H](O)C3O)c[nH]c12 (stereo partly shown) [5′-Napthylthio-ImmA] |  |  |  | 52 ± 5 |  | 0.75 ± 0.033 |  | 
13 | CCC[C@H]1N[C@@H](c2c[nH]c3c(N)ncnc23)[C@H](O)[C@@H]1O [5′-deoxy-5′-ethyl-ImmA, (1S)-1-(9-Deazaadenin-9-yl)-1,4,5-trideoxy-5-ethyl-1,4-imino-D-ribitol] | 0.038 ± 0.005 | 0.121 ± 0.005 |  |  |  |  |  | 
14 | C[C@H]1N[C@@H](c2c[nH]c3c(N)ncnc23)[C@H](O)[C@@H]1O [5′-deoxy-ImmA, (1S)-1-(9-deazaadenin-9-yl)-1,4,5-trideoxy-1,4-imino-D-ribitol hydrochloride] |  |  |  | 220 ± 14 |  | 13 ± 1 |  | 
15 | CSC[C@H]1N[C@@H](c2n[nH]c3c(N)ncnc23)C(O)[C@H]1O (stereo partly drawn) [5′-methylthio-8-aza-ImmA, (1S)-1-(7-Amino-1H-pyrazolo[4,3-d]pyrimidin-3-yl)-1,4-dideoxy-1,4-imino-5-methylthio-D-ribitol] |  |  | 0.76 ± 0.14 | 7 ± 1 | 0.026 ± 0.0003 | 0.055 ± 0.003 |  | 
16 | Nc1ncnc2c([C@@H]3N[C@H](CO)C(O)C3O)c[nH]c12 (stereo partly shown) [Immucillin A, reference compound] |  |  |  |  |  |  | no inhibition | 
17 | CSC[C@H]1N[C@@H](c2c[nH]c3c(=O)[nH]cnc23)C(O)C1O (stereo partly shown) [methylthio-ImmH, reference compound] |  |  |  |  |  |  |  | no inhibition
